Consider 18 compounds from patent publication US20220089612A1, “HETEROCYCLIC COMPOUNDS AS PRMT5 INHIBITORS” (ANGEX PHARMACEUTICAL, INC., priority 2017, published 2022).

Structures are written as SMILES. Where only a bound is given, the exact number is not on record here.

Sequence of PRMT5:MEP50 (O14744 whole entry, species assumed): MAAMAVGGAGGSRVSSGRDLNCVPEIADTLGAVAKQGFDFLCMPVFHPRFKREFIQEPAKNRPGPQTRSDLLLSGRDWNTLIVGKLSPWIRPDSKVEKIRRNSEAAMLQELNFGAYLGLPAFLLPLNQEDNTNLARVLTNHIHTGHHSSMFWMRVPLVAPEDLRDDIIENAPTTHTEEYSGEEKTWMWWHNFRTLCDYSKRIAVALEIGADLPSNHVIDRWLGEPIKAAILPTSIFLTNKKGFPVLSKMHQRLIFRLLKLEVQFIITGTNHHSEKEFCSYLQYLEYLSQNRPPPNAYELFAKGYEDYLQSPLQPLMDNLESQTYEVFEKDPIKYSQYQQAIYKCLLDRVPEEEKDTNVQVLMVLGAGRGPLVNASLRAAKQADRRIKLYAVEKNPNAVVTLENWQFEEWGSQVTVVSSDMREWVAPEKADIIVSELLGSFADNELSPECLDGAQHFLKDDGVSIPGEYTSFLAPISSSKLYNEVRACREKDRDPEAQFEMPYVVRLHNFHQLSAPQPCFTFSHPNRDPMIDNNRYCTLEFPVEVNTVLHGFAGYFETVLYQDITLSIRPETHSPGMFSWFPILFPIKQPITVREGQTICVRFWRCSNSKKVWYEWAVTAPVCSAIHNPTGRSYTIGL
Sequence of PRMT5:MEP50 (Q9BQA1 whole entry partner, species assumed): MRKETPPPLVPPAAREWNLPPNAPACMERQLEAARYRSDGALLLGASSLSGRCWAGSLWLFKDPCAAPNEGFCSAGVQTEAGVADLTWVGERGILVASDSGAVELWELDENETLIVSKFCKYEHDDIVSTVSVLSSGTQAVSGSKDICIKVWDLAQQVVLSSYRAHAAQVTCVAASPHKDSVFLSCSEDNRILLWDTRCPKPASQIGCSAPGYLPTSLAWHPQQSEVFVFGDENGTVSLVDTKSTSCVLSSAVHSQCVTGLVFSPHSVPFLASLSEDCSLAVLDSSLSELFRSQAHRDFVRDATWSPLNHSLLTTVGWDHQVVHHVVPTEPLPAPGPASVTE

In this experiment the target is PRMT5:MEP50 (Homo sapiens, UniProt O14744). Kind of experiment: PRMT5:MEP50 Flashplate Assay. It is filed as biochemical. Conditions: PRMT5:MEP50 inhibitory activity; 3H-SAM, 2 h at room temperature, top concentration 10 μM. The protocol: PRMT5:MEP50 Flashplate Assay:
Ten-point curves of inhibitor compounds were made using serial threefold dilutions in DMSO (the final top concentration of compound was 10 μM, 1% DMSO). Reaction mixture consisting of 50 mM Tris-HCl (pH 8.5), 0.002% Tween 20, 0.005% BSA (Bovine Serum Albumin), 1 mM TCEP, and 1% DMSO. Substrates are freshly prepared in reaction buffer. PRMT5:MEP50 was then added into substrate solution and mixed gently. Inhibitor compound was then added and incubated for 30 min at room temperature. ^3H-SAM was added to initiate the reaction. Reactions were incubated for 2 h at room temperature and quenched with 0.5 mM SAM (S-adenosyl-L-Methionine) in assay buffer. An aliquot of the reaction mix was transferred to a streptavidin-coated 384-well FlashPlate (PerkinElmer). After an incubation time of 1 h, the plate was washed and then read on a TopCount (PerkinElmer) to measure the amount of tritium incorporated into the peptide substrate. IC50 was calculated using conventional curve-fitting method.
On to `C=CC[C@@H]1Cc2cc3ccc(CC[C@H]4C[C@@H](n5ccc6c(N)ncnc65)[C@H](O)[C@@H]4O)cc3nc2N1` [Compound 1-27, (1S,2R,3S,5R)-3-(2-((R)-2-allyl-2,3-dihydro-1H-pyrrolo[2,3-b]quinolin-7-yl)ethyl)-5-(4-amino-7H-pyrrolo[2,3-d]pyrimidin-7-yl)cyclopentane-1,2-diol], for which the IC50 was less than 1 nM.

Consider `Nc1ncnc2c1ccn2[C@@H]1C[C@H](CCc2ccc3cc4c(nc3c2)N[C@H](c2ccccc2)C4)[C@@H](O)[C@H]1O` [Compound 1-28, (1R,2S,3R,5S)-3-(4-amino-7H-pyrrolo[2,3-d]pyrimidin-7-yl)-5-(2-((S)-2-phenyl-2,3-dihydro-1H-pyrrolo[2,3-b]quinolin-7-yl)ethyl)cyclopentane-1,2-diol], for which the IC50 is 1 to 100 nM.

`Nc1ncnc2c1ccn2[C@@H]1C[C@H](CCc2ccc3cc4c(nc3c2)N[C@H](CC2CC2)C4)[C@@H](O)[C@H]1O` [Compound 1-29, (1R,2S,3R,5S)-3-(4-amino-7H-pyrrolo[2,3-d]pyrimidin-7-yl)-5-(2-((R)-2-(cyclopropylmethyl)-2,3-dihydro-1H-pyrrolo[2,3-b]quinolin-7-yl)ethyl)cyclopentane-1,2-diol] gave an IC50 of 1 to 100 nM.

`CC1(C)Cc2cc3ccc(CC[C@H]4C[C@@H](n5ccc6c(N)ncnc65)[C@H](O)[C@@H]4O)cc3nc2N1` [Compound 1-30, (1R,2S,3R,5S)-3-(4-amino-7H-pyrrolo[2,3-d]pyrimidin-7-yl)-5-(2-(2,2-dimethyl-2,3-dihydro-1H-pyrrolo[2,3-b]quinolin-7-yl)ethyl)cyclopentane-1,2-diol] showed an IC50 of less than 1 nM.

In turn, `Nc1ncnc2c1ccn2[C@@H]1C[C@H](CCc2ccc3cc4c(nc3c2)NC2(CC2)C4)[C@@H](O)[C@H]1O` [Compound 1-31, (1R,2S,3R,5S)-3-(4-amino-7H-pyrrolo[2,3-d]pyrimidin-7-yl)-5-(2-(1′,3′-dihydrospiro[cyclopropane-1,2′-pyrrolo[2,3-b]quinolin]-7′-yl)ethyl)cyclopentane-1,2-diol] returned an IC50 of less than 1 nM.

In the case of `Nc1ncnc2c1ccn2[C@@H]1C[C@H](CCc2ccc3cc4c(=O)[nH][nH]c4nc3c2)[C@@H](O)[C@H]1O` [Compound 1-32, 7-(2-((1S,2R,3S,4R)-4-(4-amino-7H-pyrrolo[2,3-d]pyrimidin-7-yl)-2,3-dihydroxycyclopentyl)ethyl)-1,2-dihydro-3H-pyrazolo[3,4-b]quinolin-3-one], the IC50 was in the range of 1 to 100 nM.

The compound `Nc1ncnc2c1ccn2[C@@H]1C[C@H](CCc2ccc3cc4c(=O)n(-c5ccccc5)[nH]c4nc3c2)[C@@H](O)[C@H]1O` [Compound 1-33, 7-(2-((1S,2R,3S,4R)-4-(4-amino-7H-pyrrolo[2,3-d]pyrimidin-7-yl)-2,3-dihydroxycyclopentyl)ethyl)-2-phenyl-1,2-dihydro-3H-pyrazolo[3,4-b]quinolin-3-one] came in with an IC50 greater than 100 nM.

`Cn1[nH]c2nc3cc(CC[C@H]4C[C@@H](n5ccc6c(N)ncnc65)[C@H](O)[C@@H]4O)ccc3cc2c1=O` [Compound 1-34, 7-(2-((1S,2R,3S,4R)-4-(4-amino-7H-pyrrolo[2,3-d]pyrimidin-7-yl)-2,3-dihydroxycyclopentyl)ethyl)-2-methyl-1,2-dihydro-3H-pyrazolo[3,4-b]quinolin-3-one] yielded an IC50 greater than 100 nM.

In turn, `Nc1ncnc2c1ccn2[C@@H]1C[C@H](CCc2ccc3cc4c(nc3c2)NCCC4)[C@@H](O)[C@H]1O` [Compound 1-35, (1R,2S,3R,5S)-3-(4-amino-7H-pyrrolo[2,3-d]pyrimidin-7-yl)-5-(2-(1,2,3,4-tetrahydrobenzo[b][1,8]naphthyridin-8-yl)ethyl)cyclopentane-1,2-diol] gave an IC50 of less than 1 nM.

Take `C[C@H]1CCc2cc3ccc(CC[C@H]4C[C@@H](n5ccc6c(N)ncnc65)[C@H](O)[C@@H]4O)cc3nc2N1` [Compound 1-36, (1R,2S,3R,5S)-3-(4-amino-7H-pyrrolo[2,3-d]pyrimidin-7-yl)-5-(2-((S)-2-methyl-1,2,3,4-tetrahydrobenzo[b][1,8]naphthyridin-8-yl)ethyl)cyclopentane-1,2-diol]: the IC50 is less than 1 nM.

In turn, `C[C@@H]1CCc2cc3ccc(CC[C@H]4C[C@@H](n5ccc6c(N)ncnc65)[C@H](O)[C@@H]4O)cc3nc2N1` [Compound 1-37, (1R,2S,3R,5S)-3-(4-amino-7H-pyrrolo[2,3-d]pyrimidin-7-yl)-5-(2-((R)-2-methyl-1,2,3,4-tetrahydrobenzo[b][1,8]naphthyridin-8-yl)ethyl)cyclopentane-1,2-diol] gave an IC50 of less than 1 nM.

`Nc1ncnc2c1ccn2[C@@H]1C[C@H](CCc2ccc3cc4c(nc3c2)N[C@H](C2CC2)CC4)[C@@H](O)[C@H]1O` [Compound 1-38, (1R,2S,3R,5S)-3-(4-amino-7H-pyrrolo[2,3-d]pyrimidin-7-yl)-5-(2-((S)-2-cyclopropyl-1,2,3,4-tetrahydrobenzo[b][1,8]naphthyridin-8-yl)ethyl)cyclopentane-1,2-diol] returned an IC50 of less than 1 nM.

The compound `CC(C)[C@@H]1CCc2cc3ccc(CC[C@H]4C[C@@H](n5ccc6c(N)ncnc65)[C@H](O)[C@@H]4O)cc3nc2N1` [Compound 1-39, (1R,2S,3R,5S)-3-(4-amino-7H-pyrrolo[2,3-d]pyrimidin-7-yl)-5-(2-((S)-2-isopropyl-1,2,3,4-tetrahydrobenzo[b][1,8]naphthyridin-8-yl)ethyl)cyclopentane-1,2-diol] yielded an IC50 of 1 to 100 nM.

Consider `Nc1ncnc2c1ccn2[C@@H]1C[C@H](CCc2ccc3cc4c(nc3c2)N[C@H](C2CCC2)CC4)[C@@H](O)[C@H]1O` [Compound 1-40, (1R,2S,3R,5S)-3-(4-amino-7H-pyrrolo[2,3-d]pyrimidin-7-yl)-5-(2-((S)-2-cyclobutyl-1,2,3,4-tetrahydrobenzo[b][1,8]naphthyridin-8-yl)ethyl)cyclopentane-1,2-diol], for which the IC50 is 1 to 100 nM.

The compound `Nc1ncnc2c1ccn2[C@@H]1C[C@H](CCc2ccc3cc4c(nc3c2)NCCCC4)[C@@H](O)[C@H]1O` [Compound 1-41, (1R,2S,3R,5S)-3-(4-amino-7H-pyrrolo[2,3-d]pyrimidin-7-yl)-5-(2-(2,3,4,5-tetrahydro-1H-azepino[2,3-b]quinolin-9-yl)ethyl)cyclopentane-1,2-diol] displayed an IC50 of less than 1 nM.

Regarding `CC1(C)CNc2nc3cc(CC[C@H]4C[C@@H](n5ccc6c(N)ncnc65)[C@H](O)[C@@H]4O)ccc3cc21` [Compound 2-3, (1R,2S,3R,5S)-3-(4-amino-7H-pyrrolo[2,3-d]pyrimidin-7-yl)-5-(2-(3,3-dimethyl-2,3-dihydro-1H-pyrrolo[2,3-b]quinolin-7-yl)ethyl)cyclopentane-1,2-diol], the IC50 is less than 1 nM.

On to `Nc1ncnc2c1ccn2[C@@H]1O[C@H](CCc2ccc3cc4c(nc3c2)NCC4)[C@@H](O)[C@H]1O` [Compound 3-8, (2R,3R,4S,5R)-2-(4-amino-7H-pyrrolo[2,3-d]pyrimidin-7-yl)-5-(2-(2,3-dihydro-1H-pyrrolo[2,3-b]quinolin-7-yl)ethyl)tetrahydrofuran-3,4-diol], for which the IC50 was in the range of 1 to 100 nM.

With `CC1(C)CNc2nc3cc(CC[C@H]4O[C@@H](n5ccc6c(N)ncnc65)[C@H](O)[C@@H]4O)ccc3cc21` [Compound 3-9, (2R,3R,4S,5R)-2-(4-amino-7H-pyrrolo[2,3-d]pyrimidin-7-yl)-5-(2-(3,3-dimethyl-2,3-dihydro-1H-pyrrolo[2,3-b]quinolin-7-yl)ethyl)tetrahydrofuran-3,4-diol], the IC50 is 1 to 100 nM.

For orientation: IC50 means the concentration needed to halve the response being measured.
